From ChEMBL document CHEMBL1201862, “PubChem BioAssay data set” (2004)
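How tested: cells in 96-well plates exposed to compound for 48 hours at five concentrations. GI50 = concentration required for 50% inhibition of growth.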 Calls of active or inactive are those of the source. Cut-off read from the data, not from the text of the source: active = GI50 up to about 1.1 µM and inactive = higher.

Columns and labels:
Test in all cases: growth of human tumour cells (NCI), 48 h
U-251 = system: U-251
OVCAR-3 = system: OVCAR-3
SK-MEL-28 = system: SK-MEL-28
HCT-116 = system: HCT-116
ACHN = system: ACHN
CCRF-CEM = system: CCRF-CEM
LXFL 529 = system: LXFL 529
OVCAR-8 = system: OVCAR-8
SN12C = system: SN12C
UACC-62 = system: UACC-62
RXF 393 = system: RXF 393
HL-60 = system: HL-60
HOP-62 = system: HOP-62
NCI-H226 = system: NCI-H226
SF-268 = system: SF-268
MOLT-4 = system: MOLT-4
SF-295 = system: SF-295
786-0 = system: 786-0
A498 = system: A498
HCT-15 = system: HCT-15

SMILES | GI50 (U-251) | GI50 (OVCAR-3) | GI50 (SK-MEL-28) | GI50 (HCT-116) | GI50 (ACHN) | GI50 (CCRF-CEM) | GI50 (LXFL 529) | GI50 (OVCAR-8) | GI50 (SN12C) | GI50 (UACC-62) | GI50 (RXF 393) | GI50 (HL-60) | GI50 (HOP-62) | GI50 (NCI-H226) | GI50 (SF-268) | GI50 (MOLT-4) | GI50 (SF-295) | GI50 (786-0) | GI50 (A498) | GI50 (HCT-15) [µM]
N#CC(/C(CCC(=O)Nc1ccc(Cl)cc1)=N/NC(=O)c1cc2ccccc2cc1O)c1ccccc1 (stereo not given) | 32.8 µM (inactive) | 30.5 µM (inactive) | 48.8 µM (inactive) | 31.3 µM (inactive) | 24.9 µM (inactive) | 10.2 µM (inactive) | 43 µM (inactive) | 32.2 µM (inactive) | 43.4 µM (inactive) | 25.1 µM (inactive) | 56.5 µM (inactive) | 6.53 µM (inactive) | 31.3 µM (inactive) | 42.2 µM (inactive) | 25.4 µM (inactive) | 22.2 µM (inactive) | 39.8 µM (inactive) | 38.3 µM (inactive) | – | –
CCOC(=O)C(C)NC(=O)NC12CC3CC(CC(F)(C3)C1)C2 (stereo not given) | > 100 µM (inactive) | 42 µM (inactive) | > 100 µM (inactive) | > 100 µM (inactive) | > 100 µM (inactive) | 76.7 µM (inactive) | > 100 µM (inactive) | > 100 µM (inactive) | – | > 100 µM (inactive) | 27.5 µM (inactive) | 61.5 µM (inactive) | > 100 µM (inactive) | – | – | 62.1 µM (inactive) | – | > 100 µM (inactive) | > 100 µM (inactive) | –
N#CC(C#N)=C1NC(=O)C(c2ccccc2)C(=O)N1 (stereo not given) | > 100 µM (inactive) | > 100 µM (inactive) | – | > 100 µM (inactive) | – | > 100 µM (inactive) | > 100 µM (inactive) | > 100 µM (inactive) | > 100 µM (inactive) | > 100 µM (inactive) | > 100 µM (inactive) | > 100 µM (inactive) | > 100 µM (inactive) | > 100 µM (inactive) | > 100 µM (inactive) | > 100 µM (inactive) | > 100 µM (inactive) | > 100 µM (inactive) | > 100 µM (inactive) | > 100
O=C(NCCCCCCNC(=O)OCCSCCn1cc(C(=O)NC(=O)OCc2ccccc2)c(=O)[nH]c1=O)OCCSCCn1cc(C(=O)NC(=O)OCc2ccccc2)c(=O)[nH]c1=O | > 100 µM (inactive) | > 100 µM (inactive) | – | – | > 100 µM (inactive) | > 100 µM (inactive) | > 100 µM (inactive) | > 100 µM (inactive) | > 100 µM (inactive) | > 100 µM (inactive) | 45.5 µM (inactive) | – | > 100 µM (inactive) | > 100 µM (inactive) | – | > 100 µM (inactive) | > 100 µM (inactive) | > 100 µM (inactive) | > 100 µM (inactive) | > 100
O=c1[nH]c(=O)n([C@H]2C[C@@H](CO)[C@@H](O)C2)cc1I | > 100 µM (inactive) | > 100 µM (inactive) | > 100 µM (inactive) | > 100 µM (inactive) | > 100 µM (inactive) | > 100 µM (inactive) | > 100 µM (inactive) | > 100 µM (inactive) | > 100 µM (inactive) | > 100 µM (inactive) | – | > 100 µM (inactive) | > 100 µM (inactive) | > 100 µM (inactive) | > 100 µM (inactive) | > 100 µM (inactive) | > 10 µM (inactive) | > 100 µM (inactive) | > 100 µM (inactive) | > 100
CC[C@@H]1OC2(C)CC(S(=O)(=O)c3ccccc3O)CC1O2 (stereo not given in full) | > 100 µM (inactive) | > 100 µM (inactive) | > 100 µM (inactive) | > 100 µM (inactive) | > 100 µM (inactive) | > 100 µM (inactive) | > 100 µM (inactive) | > 100 µM (inactive) | > 100 µM (inactive) | > 100 µM (inactive) | > 100 µM (inactive) | > 100 µM (inactive) | > 100 µM (inactive) | > 100 µM (inactive) | > 100 µM (inactive) | > 100 µM (inactive) | > 100 µM (inactive) | > 100 µM (inactive) | – | > 100
